Where a name gives a salt, the structure may show the parent alone.

This experiment relates to TEAD-dependent transcription. In words: Inhibitor activity against TEAD-dependent transcription in a cell-based reporter assay (MSTO-211H+12XGTIIC luciferase). Particulars: Homo sapiens; MSTO-211H+12XGTIIC cells, 24 hours incubation, luciferase luminescence normalized to cell viability fluorescence, geometric mean; read-out: MSTO-211H GMean IC50 (uM) Cell Assay Reporter Cell Variant: TEAD. Summed up:
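MSTO-211H mesothelioma cells stably carrying a 12xGTIIC TEAD-response-element luciferase reporter, treated with serial compound dilutions for 24 h at 37 °C. Luminescence normalized to CellTiter-Fluor viability signal; % inhibition versus DMSO and 20 μM K-975 controls, IC50 by nonlinear regression.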
As usually defined, the IC50 is the concentration at which inhibition is half-maximal. Take `C=CC(=O)N1CCc2ccc(Oc3ccc(F)cc3F)cc2C1` [P-0008, 1-(7-(2,4-difluorophenoxy)-3,4-dihydroisoquinolin-2(1H)-yl)prop-2-en-1-one]: the IC50 was 0.001 to 0.5 µM.
Under `C=CC(=O)N1CCc2ccc(Oc3ccc(C(F)(F)F)cc3)cc2C1` [P-0018, 1-(7-(4-(trifluoromethyl)phenoxy)-3,4-dihydroisoquinolin-2(1H)-yl)prop-2-en-1-one] stands 0.001 to 0.5 µM.
Under `C=CC(=O)N1CCc2ccc(NC3CCCC3)cc2C1` [P-0066, 1-(7-(cyclopentylamino)-3,4-dihydroisoquinolin-2(1H)-yl)prop-2-en-1-one] stands 0.001 to 0.5 µM; under `C=CC(=O)N1CCc2ccc(N[C@H]3CC[C@@H](C(F)(F)F)CC3)cc2C1` [P-0065, 1-(7-(((1s,4s)-4-(trifluoromethyl)cyclohexyl)ami-no)-3,4-dihydroisoquinolin-2(1H)-yl)prop-2-en-1-one formate], 0.001 to 0.5 µM; under `C=CC(=O)N1CCc2ccc(Nc3ccnc(C(F)(F)F)c3)cc2C1` [P-0011, 1-(7-((2-(trifluoromethyl)pyridin-4-yl)amino)-3,4-dihydroisoquinolin-2(1H)-yl)prop-2-en-1-one], 0.5 to 20 µM.
Under `C=CC(=O)N1CCc2ccc(OC3CCN(S(C)(=O)=O)CC3)cc2C1` [P-0028, 1-(7-((1-(methylsulfonyl)piperidin-4-yl)oxy)-3,4-dihydroisoquinolin-2(1H)-yl)prop-2-en-1-one] stands 0.5 to 20 µM; under `C=CC(=O)N1CCc2ccc(OCC34CC5CC(CC(C5)C3)C4)cc2C1` [P-0108, 1-(7-(((3r,5r,7r)-adamantan-1-yl)methoxy)-3,4-dihydroisoquinolin-2(1H)-yl)prop-2-en-1-one], 0.001 to 0.5 µM; under `C=CC(=O)N1CCc2ccc(NC3CC4(CCC4)C3)cc2C1` [P-0055, 1-(7-(spiro[3.3]heptan-2-ylamino)-3,4-dihydroisoquinolin-2(1H)-yl)prop-2-en-1-one formate], 0.001 to 0.5 µM.
Turning to `C=CC(=O)N1CCc2ccc(Oc3ccc(Cl)c(F)c3)cc2C1` [P-0073, 1-(7-(4-chloro-3-fluorophenoxy)-3,4-dihydroisoquinolin-2(1H)-yl)prop-2-en-1-one], the IC50 was in the range of 0.001 to 0.5 µM.
Consider `CN1CCN(C/C=C/C(=O)N2CCc3ccc(Oc4ccc(C(F)(F)F)cc4)cc3C2)CC1` [P-0121, (E)-4-(4-methylpiperazin-1-yl)-1-(7-(4-(trifluoromethyl)phenoxy)-3,4-dihydroisoquinolin-2(1H)-yl)but-2-en-1-one], for which the IC50 was 0.5 to 20 µM.
Take `C=CC(=O)N1CCc2cc(C)c(Oc3ccc(C(F)(F)F)c(F)c3)cc2C1` [P-0099, 1-(7-(3-fluoro-4-(trifluoromethyl)phenoxy)-6-methyl-3,4-dihydroisoquinolin-2(1H)-yl)prop-2-en-1-one]: the IC50 fell in the range of 0.001 to 0.5 µM.
For the compound `C=CC(=O)N1CCc2ccc(Oc3cccc(C#N)c3)cc2C1` [P-0092, 3-((2-acryloyl-1,2,3,4-tetrahydroisoquinolin-7-yl)oxy)benzonitrile], the IC50 was in the range of 0.001 to 0.5 µM.
`C=CC(=O)N1CCc2ccc(OC3CC4(CCC4)C3)cc2C1` [P-0074, 1-(7-(spiro[3.3]heptan-2-yloxy)-3,4-dihydroisoquinolin-2(1H)-yl)prop-2-en-1-one]: the IC50 is 0.001 to 0.5 µM.
With `C=CC(=O)N1CCc2ccc(Oc3cccc(C4CC4)c3)cc2C1` [P-0046, 1-(7-(3-cyclopropylphenoxy)-3,4-dihydroisoquinolin-2(1H)-yl)prop-2-en-1-one], the IC50 lay within 0.001 to 0.5 µM.
Under `C=CC(=O)N1CCc2ccc(NCC3CCC(F)(F)CC3)cc2C1` [P-0100, 1-(7-(((4,4-difluorocyclohexyl)methyl)ami-no)-3,4-dihydroisoquinolin-2(1H)-yl)prop-2-en-1-one] stands 0.001 to 0.5 µM; under `C=CC(=O)N1CCc2ccc(OC3CCC(C(F)(F)F)CC3)cc2C1` (centres unmarked) [P-0071, 1-(7-((4-(trifluoromethyl)cyclohexyl)oxy)-3,4-dihydroisoquinolin-2(1H)-yl)prop-2-en-1-one], 0.001 to 0.5 µM.
With `C=CC(=O)N1CCc2ccc(Oc3ccc(C4CC4)c(F)c3)cc2C1` [P-0050, 1-(7-(4-cyclopropyl-3-fluorophenoxy)-3,4-dihydroisoquinolin-2(1H)-yl)prop-2-en-1-one], the IC50 is 0.001 to 0.5 µM.
Under `C=CC(=O)N1CCc2ccc(Oc3cc(F)ccc3F)cc2C1` [P-0058, 1-(7-(2,5-difluorophenoxy)-3,4-dihydroisoquinolin-2(1H)-yl)prop-2-en-1-one] stands 0.001 to 0.5 µM; under `C=CC(=O)N1CCc2ccc(Nc3cccc(C(F)(F)F)c3)cc2C1` [P-0025, 1-(7-((3-(trifluoromethyl)phenyl)amino) -3,4-dihydroisoquinolin-2(1H)-yl)prop-2-en-1-one], 0.001 to 0.5 µM.
Turning to `C=CC(=O)N1CCc2ccc(Cc3ccc(C(F)(F)F)cc3)cc2C1` [P-0072, 1-(7-(4-(trifluoromethyl)benzyl)-3,4-dihydroisoquinolin-2(1H)-yl)prop-2-en-1-one], the IC50 lay within 0.001 to 0.5 µM.
For the compound `C=CC(=O)N1CCc2ccc(OCc3cccc(F)c3)cc2C1` [P-0091, 1-(7-((3-fluorobenzyl)oxy)-3,4-dihydroisoquinolin-2(1H)-yl)prop-2-en-1-one], the IC50 fell in the range of 0.001 to 0.5 µM.
On to `C=C(CO)C(=O)N1CCc2ccc(Oc3cccc(F)c3)cc2C1` [P-0038, 1-(7-(3-fluorophenoxy)-3,4-dihydroisoquinolin-2(1H)-yl)-2-(hydroxymethyl)prop-2-en-1-one], for which the IC50 fell in the range of 0.001 to 0.5 µM.
For the compound `C=C(C)C(=O)N1CCc2ccc(Oc3ccc(C(F)(F)F)cc3)cc2C1` [P-0122, 2-methyl-1-(7-(4-(trifluoromethyl)phenoxy)-3,4-dihydroisoquinolin-2(1H)-yl)prop-2-en-1-one], the IC50 fell in the range of 0.5 to 20 µM.
Turning to `C=CC(=O)N1CCc2ccc(Oc3cccc(Cl)c3)cc2C1` [P-0014, 1-(7-(3-chlorophenoxy)-3,4-dihydroisoquinolin-2(1H)-yl)prop-2-en-1-one], the IC50 was 0.001 to 0.5 µM.
In the case of `C=CS(=O)(=O)N1CCc2ccc(Oc3ccc(C(F)(F)F)cc3)cc2C1` [P-0114, 7-(4-(trifluoromethyl)phenoxy)-2-(vinylsulfonyl)-1,2,3,4-tetrahydroisoquinoline] it was 0.5 to 20 µM; in that of `C=CC(=O)N1CCc2c(F)cc(Oc3ccc(C(F)(F)F)cc3)cc2C1` [P-0113, 1-(5-fluoro-7-(4-(trifluoromethyl)phenoxy)-3,4-dihydroisoquinolin-2(1H)-yl)prop-2-en-1-one], 0.001 to 0.5 µM.
Consider `C=CC(=O)N1CCc2ccc(NCc3ccccc3)cc2C1` [P-0089, 1-(7-(benzylamino)-3,4-dihydroisoquinolin-2(1H)-yl)prop-2-en-1-one], for which the IC50 was 0.001 to 0.5 µM.
Under `C=CC(=O)N1CCc2ccc(Nc3ccccc3F)cc2C1` [P-0022, 1-(7-((2-fluorophenyl)amino)-3,4-dihydroisoquinolin-2(1H)-yl)prop-2-en-1-one] stands 0.001 to 0.5 µM.
In the case of `C=CC(=O)N1CCc2ccc(Oc3ccc(C(F)(F)F)c(F)c3)cc2C1` [P-0045, 1-(7-(3-fluoro-4-(trifluoromethyl)phenoxy)-3,4-dihydroisoquinolin-2(1H)-yl)prop-2-en-1-one] it was 0.001 to 0.5 µM.
For the compound `C=CC(=O)N1CCc2ccc(OC3CCC(F)(F)CC3)cc2C1` [P-0062, 1-(7-((4,4-difluorocyclohexyl)oxy)-3,4-dihydroisoquinolin-2(1H)-yl)prop-2-en-1-one], the IC50 lay in the range of 0.001 to 0.5 µM.
In the case of `C=CC(=O)N1CCc2ccc(Oc3cccnc3)cc2C1` [P-019, 1-(7-(pyridin-3-yloxy)-3,4-dihydroisoquinolin-2(1H)-yl)prop-2-en-1-one] it was 0.001 to 0.5 µM.
Under `C=CC(=O)N1CCc2ccc(Oc3cccc(C(F)(F)F)n3)cc2C1` [P-0069, 1-(7-((6-(trifluoromethyl)pyridin-2-yl)oxy)-3,4-dihydroisoquinolin-2(1H)-yl)prop-2-en-1-one] stands 0.5 to 20 µM; under `C=CC(=O)N1CCc2ccc(OC3CCC(C)(C)CC3)cc2C1` [P-0082, 1-(7-((4,4-dimethylcyclohexyl)oxy)-3,4-dihydroisoquinolin-2(1H)-yl)prop-2-en-1-one], 0.001 to 0.5 µM; under `C=CC(=O)N1CCc2ccc(Oc3ccc(C4CC4)cc3)cc2C1` [P-0047, 1-(7-(4-cyclopropylphenoxy)-3,4-dihydroisoquinolin-2(1H)-yl)prop-2-en-1-one], 0.001 to 0.5 µM.
With `C=CC(=O)N1CCc2cc(F)c(Oc3ccc(C(F)(F)F)c(F)c3)cc2C1` [P-0098, 1-(6-fluoro-7-(3-fluoro-4-(trifluoromethyl)phenoxy)-3,4-dihydroisoquinolin-2(1H)-yl)prop-2-en-1-one], the IC50 fell in the range of 0.001 to 0.5 µM.
Under `C=CC(=O)N1CCc2ccc(OC3CCOCC3)cc2C1` [P-0009, 1-(7-((tetrahydro-2H-pyran-4-yl)oxy)-3,4-dihydroisoquinolin-2(1H)-yl)prop-2-en-1-one] stands 0.001 to 0.5 µM; under `C=CC(=O)N1CCc2ccc(NC3CC4C(C3)C4(F)F)cc2C1` (centres unmarked) [P-0087, 1-(7-((6,6-difluorobicyclo[3.1.0]hexan-3-yl)amino)-3,4-dihydroisoquinolin-2(1H)-yl)prop-2-en-1-one], 0.001 to 0.5 µM; under `C=CC(=O)N1CCc2ccc(Oc3ccccc3)cc2C1` [P-0007, 1-(7-phenoxy-3,4-dihydroisoquinolin-2(1H)-yl)prop-2-en-1-one], 0.001 to 0.5 µM.
Under `C=CC(=O)N1CCc2ccc(OCC3CC4C(C3)C4(F)F)cc2C1` (centres unmarked) [P-0111, 1-(7-((6,6-difluorobicyclo[3.1.0]hexan-3-yl)methoxy)-3,4-dihydroisoquinolin-2(1H)-yl)prop-2-en-1-one] stands 0.001 to 0.5 µM; under `C=CC(=O)N1CCc2ccc(Nc3cccc(Cl)c3)cc2C1` [P-0024, 1-(7-((3-chlorophenyl)amino)-3,4-dihydroisoquinolin-2(1H)-yl)prop-2-en-1-one], 0.001 to 0.5 µM; under `C=CC(=O)N1CCc2ccc(OC3CCCCCC3)cc2C1` [P-0070, 1-(7-(cycloheptyloxy)-3,4-dihydroisoquinolin-2(1H)-yl)prop-2-en-1-one], 0.001 to 0.5 µM.
